Assay results: ChEMBL document CHEMBL1201862, “PubChem BioAssay data set” (2004)
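Compound exposure: 48 hours, 5 concentrations, 96-well plates. The concentration for 50% growth inhibition is given as GI50.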 Active and inactive are the calls of the source. Cut-off read from the data, not from the text of the source: active = GI50 up to about 1.1 µM and inactive = higher.

What was measured:
Experiment in all cases: NCI anticancer screen, dose series, 48 h
HCC 2998 = test system: HCC 2998
UACC-257 = test system: UACC-257
NCI-H23 = test system: NCI-H23
Malme-3M = test system: Malme-3M
SK-MEL-5 = test system: SK-MEL-5
LOX IMVI = test system: LOX IMVI
HOP-92 = test system: HOP-92
UO-31 = test system: UO-31
HT-29 = test system: HT-29
SR = test system: SR
NCI-H226 = test system: NCI-H226
MDA-N = test system: MDA-N
SF-268 = test system: SF-268
NCI-H522 = test system: NCI-H522
M14 = test system: M14
Hs-578T = test system: Hs-578T
HCT-116 = test system: HCT-116
MDA-MB-231 = test system: MDA-MB-231
DU-145 = test system: DU-145
HCT-15 = test system: HCT-15
SW-620 = test system: SW-620
CAKI-1 = test system: CAKI-1
HL-60 = test system: HL-60
OVCAR-3 = test system: OVCAR-3
OVCAR-8 = test system: OVCAR-8
ACHN = test system: ACHN
HOP-62 = test system: HOP-62
SF-295 = test system: SF-295
TK-10 = test system: TK-10
U-251 = test system: U-251
MDA-MB-435 = test system: MDA-MB-435
RPMI-8226 = test system: RPMI-8226
NCI-H460 = test system: NCI-H460
OVCAR-4 = test system: OVCAR-4
NCI/ADR-RES = test system: NCI/ADR-RES
SN12C = test system: SN12C
786-0 = test system: 786-0
MCF7 = test system: MCF7
MOLT-4 = test system: MOLT-4
OVCAR-5 = test system: OVCAR-5
SF-539 = test system: SF-539
UACC-62 = test system: UACC-62
SK-MEL-28 = test system: SK-MEL-28
SNB-75 = test system: SNB-75
EKVX = test system: EKVX
A549 = test system: A549
K562 = test system: K562
SK-OV-3 = test system: SK-OV-3
A498 = test system: A498
KM12 = test system: KM12
IGROV-1 = test system: IGROV-1
T47D = test system: T47D
RXF 393 = test system: RXF 393
CCRF-CEM = test system: CCRF-CEM
PC-3 = test system: PC-3
SNB-19 = test system: SNB-19
SK-MEL-2 = test system: SK-MEL-2
COLO 205 = test system: COLO 205
BT-549 = test system: BT-549

Measured: GI50

O=C1OC(OC/C(Br)=C(/Br)COC2OC(=O)C(Cl)=C2Cl)C(Cl)=C1Cl (centres undefined)
active: SR 0.724 µM
inactive: HCC 2998 16.7 µM | UACC-257 12.1 µM | NCI-H23 4.21 µM | Malme-3M 7.57 µM | SK-MEL-5 13.4 µM | LOX IMVI 2.69 µM | HOP-92 9.4 µM | UO-31 6.31 µM | HT-29 4.93 µM | NCI-H226 26.2 µM | MDA-N 8.04 µM | SF-268 9.82 µM | NCI-H522 2.14 µM | M14 6.79 µM | Hs-578T 13 µM | HCT-116 3.13 µM | MDA-MB-231 7.69 µM | DU-145 16.1 µM | SW-620 2.69 µM | CAKI-1 3.15 µM | HL-60 1.71 µM | OVCAR-3 4.88 µM | OVCAR-8 6.93 µM | ACHN 10.4 µM | HOP-62 11.7 µM | SF-295 16.1 µM | TK-10 13.5 µM | U-251 7.6 µM | MDA-MB-435 9.71 µM | RPMI-8226 1.68 µM | NCI-H460 19.6 µM | OVCAR-4 7.6 µM | NCI/ADR-RES 6.7 µM | SN12C 9.1 µM | 786-0 5.82 µM | MCF7 12.9 µM | MOLT-4 2.26 µM | OVCAR-5 14.1 µM | SF-539 21.8 µM | UACC-62 14 µM | SK-MEL-28 8.51 µM | SNB-75 18.7 µM | EKVX 16.1 µM | A549 22.1 µM | K562 2.07 µM | SK-OV-3 26.9 µM | A498 21.9 µM | KM12 8.75 µM | IGROV-1 13.7 µM | T47D 9.95 µM | RXF 393 5.09 µM | CCRF-CEM 1.71 µM | PC-3 15.8 µM | SNB-19 18.4 µM | SK-MEL-2 26.2 µM | COLO 205 4.29 µM
9.29 µM: HCT-15

CCCCCCCc1cscc1-c1cscc1Br
36.1 µM: HCT-15
inactive: HCC 2998 27.7 µM | UACC-257 31.6 µM | NCI-H23 40.8 µM | Malme-3M 42.1 µM | SK-MEL-5 28.4 µM | LOX IMVI 20.1 µM | UO-31 35.6 µM | SR 19.6 µM | NCI-H226 65.2 µM | MDA-N 35.8 µM | SF-268 > 100 µM | NCI-H522 21.4 µM | M14 31.9 µM | HCT-116 32.7 µM | MDA-MB-231 52.2 µM | DU-145 48.4 µM | SW-620 42.8 µM | CAKI-1 22.5 µM | BT-549 > 100 µM | OVCAR-8 52 µM | ACHN 33.5 µM | HOP-62 57.4 µM | SF-295 26 µM | TK-10 > 100 µM | U-251 39.3 µM | MDA-MB-435 35.9 µM | RPMI-8226 18.5 µM | NCI-H460 39.4 µM | OVCAR-4 33.7 µM | NCI/ADR-RES 90.8 µM | SN12C 69.5 µM | 786-0 57 µM | MCF7 34.8 µM | MOLT-4 20.2 µM | OVCAR-5 39.3 µM | SF-539 > 100 µM | UACC-62 70 µM | SK-MEL-28 88.9 µM | SNB-75 25.8 µM | EKVX 56.1 µM | A549 27.2 µM | K562 53.1 µM | SK-OV-3 45.9 µM | A498 86.7 µM | KM12 27.2 µM | IGROV-1 59.7 µM | T47D 24.2 µM | RXF 393 27 µM | CCRF-CEM 18.2 µM | PC-3 33 µM | SNB-19 70.1 µM | SK-MEL-2 16.6 µM | COLO 205 18 µM

Oc1ccc(-c2nc3cc(C(F)(F)F)ccc3n2CC2CCCN3CCCCC23)cc1 (centres undefined)
16.1 µM: HCT-15
inactive: HCC 2998 9.75 µM | UACC-257 16.3 µM | NCI-H23 16.5 µM | SK-MEL-5 14.1 µM | LOX IMVI 15.4 µM | HOP-92 14.9 µM | UO-31 11.7 µM | HT-29 13.4 µM | SR 16.6 µM | NCI-H226 16.3 µM | MDA-N 16.2 µM | SF-268 14.8 µM | NCI-H522 15.4 µM | M14 16.3 µM | Hs-578T 15.8 µM | HCT-116 15.7 µM | MDA-MB-231 14.5 µM | DU-145 17.1 µM | SW-620 15.1 µM | CAKI-1 18 µM | HL-60 3.01 µM | OVCAR-3 13 µM | OVCAR-8 16 µM | ACHN 15 µM | HOP-62 12.1 µM | SF-295 13.4 µM | TK-10 16.9 µM | U-251 14.8 µM | MDA-MB-435 13.5 µM | RPMI-8226 15.6 µM | NCI-H460 15.1 µM | OVCAR-4 15.1 µM | NCI/ADR-RES 16.5 µM | 786-0 17 µM | MCF7 12.6 µM | MOLT-4 15 µM | OVCAR-5 13.8 µM | SF-539 18.7 µM | SK-MEL-28 16.1 µM | SNB-75 14.9 µM | EKVX 14.8 µM | K562 15.5 µM | SK-OV-3 12.6 µM | A498 14.9 µM | KM12 15.3 µM | IGROV-1 12.7 µM | T47D 18.2 µM | RXF 393 15.5 µM | CCRF-CEM 14.7 µM | PC-3 14.1 µM | SK-MEL-2 14.7 µM
